Experimental data reported in ChEMBL document CHEMBL1201862, “PubChem BioAssay data set” (2004).
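All cell lines were grown in 96-well plates and treated with compound for 48 hours. Here, GI50 denotes the concentration required for 50% inhibition of growth.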 Calls of active or inactive are those of the source. Rule as the data show it: active = GI50 up to about 1.1 µM and inactive = higher.

Legend:
Experiment in all cases: NCI-60 cell line screen, 48 h
HOP-62 = test system: HOP-62
HCT-116 = test system: HCT-116
OVCAR-3 = test system: OVCAR-3
SF-539 = test system: SF-539
HOP-92 = test system: HOP-92
SF-295 = test system: SF-295
LOX IMVI = test system: LOX IMVI
SNB-19 = test system: SNB-19
A498 = test system: A498
MCF7 = test system: MCF7
NCI-H226 = test system: NCI-H226
MDA-N = test system: MDA-N
MDA-MB-231 = test system: MDA-MB-231
786-0 = test system: 786-0
MDA-MB-435 = test system: MDA-MB-435
T47D = test system: T47D
NCI-H460 = test system: NCI-H460
NCI-H522 = test system: NCI-H522
BT-549 = test system: BT-549
NCI-H23 = test system: NCI-H23

SMILES: COc1cccc([C@@H]2C/C(=N\NC(=O)C(=O)N[C@@H](C)c3ccccc3)c3ccccc3N2)c1
- GI50 (HOP-62): 76.6 µM (inactive)
- GI50 (HCT-116): > 100 µM (inactive)
- GI50 (OVCAR-3): > 100 µM (inactive)
- GI50 (SF-539): 13.1 µM (inactive)
- GI50 (HOP-92): 30.5 µM (inactive)
- GI50 (SF-295): 73.1 µM (inactive)
- GI50 (LOX IMVI): > 100 µM (inactive)
- GI50 (SNB-19): 24.6 µM (inactive)
- GI50 (A498): > 100 µM (inactive)
- GI50 (MCF7): 7.05 µM (inactive)
- GI50 (NCI-H226): > 100 µM (inactive)
- GI50 (MDA-N): 4.66 µM (inactive)
- GI50 (MDA-MB-231): 35.6 µM (inactive)
- GI50 (786-0): 44.6 µM (inactive)
- GI50 (MDA-MB-435): 4.82 µM (inactive)
- GI50 (T47D): 51.6 µM (inactive)

SMILES: CC(OC(C)(C)C)[C@H](NC(=O)OCc1ccccc1)C(=O)NC(OCc1ccccc1)[C@H]1COC(C)(C)O1 (stereo partly specified)
- GI50 (HOP-62): > 10 µM (inactive)
- GI50 (NCI-H460): > 10 µM (inactive)
- GI50 (HCT-116): 50.7 µM (inactive)
- GI50 (OVCAR-3): > 10 µM (inactive)
- GI50 (SF-539): > 10 µM (inactive)
- GI50 (HOP-92): > 10 µM (inactive)
- GI50 (NCI-H522): > 10 µM (inactive)
- GI50 (BT-549): > 10 µM (inactive)
- GI50 (SF-295): > 10 µM (inactive)
- GI50 (LOX IMVI): > 10 µM (inactive)
- GI50 (SNB-19): > 10 µM (inactive)
- GI50 (A498): > 10 µM (inactive)
- GI50 (NCI-H23): > 10 µM (inactive)
- GI50 (NCI-H226): > 10 µM (inactive)
- GI50 (MDA-N): > 10 µM (inactive)
- GI50 (MDA-MB-231): > 10 µM (inactive)
- GI50 (786-0): > 10 µM (inactive)
- GI50 (MDA-MB-435): > 10 µM (inactive)

SMILES: CN1C2=C(CC3=C1CC(C)(C)CC3=O)C(=O)CC(C)(C)C2
- GI50 (NCI-H460): > 100 µM (inactive)
- GI50 (OVCAR-3): > 100 µM (inactive)
- GI50 (SF-539): > 100 µM (inactive)
- GI50 (HOP-92): > 100 µM (inactive)
- GI50 (BT-549): > 100 µM (inactive)
- GI50 (LOX IMVI): > 100 µM (inactive)
- GI50 (SNB-19): > 100 µM (inactive)
- GI50 (A498): > 100 µM (inactive)
- GI50 (NCI-H23): > 100 µM (inactive)
- GI50 (MCF7): > 100 µM (inactive)
- GI50 (NCI-H226): > 100 µM (inactive)
- GI50 (786-0): > 100 µM (inactive)

SMILES: N[C@H](C(=O)O)[C@@H](Cl)CC(=O)O
- GI50 (HOP-62): > 100 µM (inactive)
- GI50 (NCI-H460): > 100 µM (inactive)
- GI50 (HCT-116): > 100 µM (inactive)
- GI50 (OVCAR-3): > 100 µM (inactive)
- GI50 (SF-539): > 100 µM (inactive)
- GI50 (HOP-92): > 100 µM (inactive)
- GI50 (NCI-H522): > 100 µM (inactive)
- GI50 (SF-295): > 100 µM (inactive)
- GI50 (LOX IMVI): > 100 µM (inactive)
- GI50 (SNB-19): > 100 µM (inactive)
- GI50 (A498): > 100 µM (inactive)
- GI50 (NCI-H23): > 100 µM (inactive)
- GI50 (NCI-H226): > 100 µM (inactive)
- GI50 (786-0): > 100 µM (inactive)

SMILES: CN(C)c1nc(N(C)C)n2nc(-c3ccccc3[N+](=O)[O-])nc2n1
- GI50 (HOP-62): > 100 µM (inactive)
- GI50 (NCI-H460): 78.7 µM (inactive)
- GI50 (HCT-116): 35.6 µM (inactive)
- GI50 (OVCAR-3): > 100 µM (inactive)
- GI50 (SF-539): 33 µM (inactive)
- GI50 (HOP-92): > 100 µM (inactive)
- GI50 (NCI-H522): > 100 µM (inactive)
- GI50 (SF-295): > 100 µM (inactive)
- GI50 (LOX IMVI): > 100 µM (inactive)
- GI50 (SNB-19): > 100 µM (inactive)
- GI50 (A498): > 100 µM (inactive)
- GI50 (NCI-H23): > 100 µM (inactive)
- GI50 (NCI-H226): > 100 µM (inactive)
- GI50 (786-0): 49.9 µM (inactive)

SMILES: Oc1cc(CN2CCOCCOCCOCCOCC2)c(O)cc1CN1CCOCCOCCOCCOCC1
- GI50 (HOP-62): > 100 µM (inactive)
- GI50 (NCI-H460): > 100 µM (inactive)
- GI50 (HCT-116): 22.9 µM (inactive)
- GI50 (OVCAR-3): 61.8 µM (inactive)
- GI50 (SF-539): > 100 µM (inactive)
- GI50 (HOP-92): 21.2 µM (inactive)
- GI50 (NCI-H522): 11.8 µM (inactive)
- GI50 (SF-295): > 100 µM (inactive)
- GI50 (LOX IMVI): 24.5 µM (inactive)
- GI50 (SNB-19): > 100 µM (inactive)
- GI50 (A498): > 75.3 µM (inactive)
- GI50 (NCI-H23): > 78.5 µM (inactive)
- GI50 (NCI-H226): > 61.5 µM (inactive)
- GI50 (786-0): 27.2 µM (inactive)

SMILES: C=C1C(=O)O[C@H]2C(=O)[C@H](C)CCC/C(C)=C/CC[C@@]3(C)O[C@@H]3C[C@@H]12
- GI50 (HOP-62): 11.6 µM (inactive)
- GI50 (NCI-H460): 15.4 µM (inactive)
- GI50 (HCT-116): 1.05 µM (active)
- GI50 (OVCAR-3): 1.74 µM (inactive)
- GI50 (SF-539): 2.39 µM (inactive)
- GI50 (HOP-92): 1 µM (active)
- GI50 (NCI-H522): 1.67 µM (inactive)
- GI50 (SF-295): 14 µM (inactive)
- GI50 (LOX IMVI): 1.49 µM (inactive)
- GI50 (SNB-19): 11.4 µM (inactive)
- GI50 (A498): 18.4 µM (inactive)
- GI50 (NCI-H23): 14 µM (inactive)
- GI50 (MCF7): 3.02 µM (inactive)
- GI50 (NCI-H226): 17.7 µM (inactive)
- GI50 (MDA-N): 2.74 µM (inactive)
- GI50 (MDA-MB-231): 10.7 µM (inactive)
- GI50 (786-0): 1.62 µM (inactive)
- GI50 (MDA-MB-435): 1.98 µM (inactive)
- GI50 (T47D): 2.01 µM (inactive)

SMILES: Clc1ccc2c(Cl)ncnc2c1
- GI50 (HOP-62): > 100 µM (inactive)
- GI50 (NCI-H460): > 100 µM (inactive)
- GI50 (HCT-116): > 100 µM (inactive)
- GI50 (OVCAR-3): > 100 µM (inactive)
- GI50 (SF-539): > 100 µM (inactive)
- GI50 (HOP-92): 85.7 µM (inactive)
- GI50 (NCI-H522): > 100 µM (inactive)
- GI50 (SF-295): > 100 µM (inactive)
- GI50 (LOX IMVI): > 100 µM (inactive)
- GI50 (SNB-19): > 100 µM (inactive)
- GI50 (A498): > 100 µM (inactive)
- GI50 (NCI-H23): > 100 µM (inactive)
- GI50 (NCI-H226): 32.7 µM (inactive)
- GI50 (786-0): > 100 µM (inactive)

SMILES: CC(=O)c1ccc2c(c1)oc(=O)n2CCN(C)C
- GI50 (HOP-62): > 100 µM (inactive)
- GI50 (NCI-H460): > 100 µM (inactive)
- GI50 (HCT-116): > 100 µM (inactive)
- GI50 (OVCAR-3): > 100 µM (inactive)
- GI50 (SF-539): > 100 µM (inactive)
- GI50 (BT-549): > 100 µM (inactive)
- GI50 (SF-295): > 100 µM (inactive)
- GI50 (LOX IMVI): > 100 µM (inactive)
- GI50 (A498): > 100 µM (inactive)
- GI50 (NCI-H23): > 100 µM (inactive)
- GI50 (MCF7): > 100 µM (inactive)
- GI50 (NCI-H226): > 100 µM (inactive)
- GI50 (MDA-MB-231): > 100 µM (inactive)
- GI50 (786-0): > 100 µM (inactive)
- GI50 (MDA-MB-435): > 100 µM (inactive)
